Test results as given in ChEMBL document CHEMBL3621178, “Antidiabetic effect of novel benzenesulfonylureas as PPAR-γ agonists and their anticancer effect” (Bioorg Med Chem Lett, 2015).

Legend:
Type in all cases: functional
[1] = test system: HL-60(TB); assay: Growth inhibition of human HL-60(TB) cells assessed as cell viability at 10 uM incubated for 48 hrs by sulforhodamine B assay; conditions: HL-60, 48 h, read-out: Activity
[2] = test system: K562; assay: Growth inhibition of human K562 cells assessed as cell viability at 10 uM incubated for 48 hrs by sulforhodamine B assay; conditions: K562, 48 h, read-out: Activity
[3] = Growth inhibition of human MOLT4 cells assessed as cell viability at 10 uM incubated for 48 hrs by sulforhodamine B assay; conditions: MOLT-4, 48 h, read-out: Activity
[4] = Growth inhibition of human RPMI8226 cells assessed as cell viability at 10 uM incubated for 48 hrs by sulforhodamine B assay; conditions: RPMI-8226, 48 h, read-out: Activity
[5] = test system: SR; assay: Growth inhibition of human SR cells assessed as cell viability at 10 uM incubated for 48 hrs by sulforhodamine B assay; conditions: read-out: Activity
[6] = test system: A549; assay: Growth inhibition of human A549/ATCC cells assessed as cell viability at 10 uM incubated for 48 hrs by sulforhodamine B assay; conditions: A549, 48 h, read-out: Activity
[7] = test system: NCI-H226; assay: Growth inhibition of human NCI-H226 cells assessed as cell viability at 10 uM incubated for 48 hrs by sulforhodamine B assay; conditions: NCI-H226, 48 h, read-out: Activity
[8] = test system: NCI-H23; assay: Growth inhibition of human NCI-H23 cells assessed as cell viability at 10 uM incubated for 48 hrs by sulforhodamine B assay; conditions: NCI-H23, 48 h, read-out: Activity
[9] = test system: NCI-H322M; assay: Growth inhibition of human NCI-H322M cells assessed as cell viability at 10 uM incubated for 48 hrs by sulforhodamine B assay; conditions: read-out: Activity
[10] = test system: NCI-H460; assay: Growth inhibition of human NCI-H460 cells assessed as cell viability at 10 uM incubated for 48 hrs by sulforhodamine B assay; conditions: NCI-H460, 48 h, read-out: Activity
[11] = Growth inhibition of human HCC2998 cells assessed as cell viability at 10 uM incubated for 48 hrs by sulforhodamine B assay; conditions: HCC 2998, 48 h, read-out: Activity
[12] = test system: HCT-116; assay: Growth inhibition of human HCT116 cells assessed as cell viability at 10 uM incubated for 48 hrs by sulforhodamine B assay; conditions: HCT-116, 48 h, read-out: Activity
[13] = test system: HCT-15; assay: Growth inhibition of human HCT15 cells assessed as cell viability at 10 uM incubated for 48 hrs by sulforhodamine B assay; conditions: HCT-15, 48 h, read-out: Activity
[14] = test system: SW-620; assay: Growth inhibition of human SW620 cells assessed as cell viability at 10 uM incubated for 48 hrs by sulforhodamine B assay; conditions: SW-620, 48 h, read-out: Activity
[15] = test system: SF-268; assay: Growth inhibition of human SF268 cells assessed as cell viability at 10 uM incubated for 48 hrs by sulforhodamine B assay; conditions: SF-268, 48 h, read-out: Activity
[16] = Growth inhibition of human SF295 cells assessed as cell viability at 10 uM incubated for 48 hrs by sulforhodamine B assay; conditions: SF-295, 48 h, read-out: Activity
[17] = test system: SNB-19; assay: Growth inhibition of human SNB19 cells assessed as cell viability at 10 uM incubated for 48 hrs by sulforhodamine B assay; conditions: SNB-19, 48 h, read-out: Activity
[18] = test system: U-251; assay: Growth inhibition of human U251 cells assessed as cell viability at 10 uM incubated for 48 hrs by sulforhodamine B assay; conditions: U-251, 48 h, read-out: Activity
[19] = Growth inhibition of human LOXIMVI cells assessed as cell viability at 10 uM incubated for 48 hrs by sulforhodamine B assay; conditions: LOX IMVI, read-out: Activity
[20] = test system: Malme-3M; assay: Growth inhibition of human MALME-3M cells assessed as cell viability at 10 uM incubated for 48 hrs by sulforhodamine B assay; conditions: read-out: Activity
[21] = test system: M14; assay: Growth inhibition of human M14 cells assessed as cell viability at 10 uM incubated for 48 hrs by sulforhodamine B assay; conditions: M14, 48 h, read-out: Activity
[22] = test system: MDA-MB-435; assay: Growth inhibition of human MDA-MB-435 cells assessed as cell viability at 10 uM incubated for 48 hrs by sulforhodamine B assay; conditions: MDA-MB-435, 48 h, read-out: Activity
[23] = test system: SK-MEL-28; assay: Growth inhibition of human SK-MEL-28 cells assessed as cell viability at 10 uM incubated for 48 hrs by sulforhodamine B assay; conditions: SK-MEL-28, 48 h, read-out: Activity
[24] = test system: SK-MEL-5; assay: Growth inhibition of human SK-MEL-5 cells assessed as cell viability at 10 uM incubated for 48 hrs by sulforhodamine B assay; conditions: SK-MEL-5, 48 h, read-out: Activity
[25] = test system: UACC-257; assay: Growth inhibition of human UACC257 cells assessed as cell viability at 10 uM incubated for 48 hrs by sulforhodamine B assay; conditions: UACC-257, 48 h, read-out: Activity
[26] = test system: OVCAR-3; assay: Growth inhibition of human OVCAR3 cells assessed as cell viability at 10 uM incubated for 48 hrs by sulforhodamine B assay; conditions: OVCAR-3, 48 h, read-out: Activity
[27] = test system: OVCAR-5; assay: Growth inhibition of human OVCAR5 cells assessed as cell viability at 10 uM incubated for 48 hrs by sulforhodamine B assay; conditions: OVCAR-5, 48 h, read-out: Activity
[28] = Growth inhibition of human RXF393 cells assessed as cell viability at 10 uM incubated for 48 hrs by sulforhodamine B assay; conditions: RXF 393, 48 h, read-out: Activity
[29] = test system: SN12C; assay: Growth inhibition of human SN12C cells assessed as cell viability at 10 uM incubated for 48 hrs by sulforhodamine B assay; conditions: read-out: Activity
[30] = test system: UO-31; assay: Growth inhibition of human UO31 cells assessed as cell viability at 10 uM incubated for 48 hrs by sulforhodamine B assay; conditions: UO-31, 48 h, read-out: Activity
[31] = test system: PC-3; assay: Growth inhibition of human PC3 cells assessed as cell viability at 10 uM incubated for 48 hrs by sulforhodamine B assay; conditions: PC-3, 48 h, read-out: Activity
[32] = test system: DU-145; assay: Growth inhibition of human DU145 cells assessed as cell viability at 10 uM incubated for 48 hrs by sulforhodamine B assay; conditions: DU-145, 48 h, read-out: Activity
[33] = test system: MCF7; assay: Growth inhibition of human MCF7 cells assessed as cell viability at 10 uM incubated for 48 hrs by sulforhodamine B assay; conditions: MCF7, 48 h, read-out: Activity
[34] = test system: MDA-MB-468; assay: Growth inhibition of human MDA-MB-468 cells assessed as cell viability at 10 uM incubated for 48 hrs by sulforhodamine B assay; conditions: MDA-MB-468, 48 h, read-out: Activity
[35] = Growth inhibition of human NCI60 cells assessed as cell viability at 10 uM incubated for 48 hrs by sulforhodamine B assay; conditions: NCI60, 48 h, read-out: Activity

Compound | viability at 10 µM [1] [%] | viability at 10 µM [2] [%] | viability at 10 µM [3] [%] | viability at 10 µM [4] [%] | viability at 10 µM [5] [%] | viability at 10 µM [6] [%] | viability at 10 µM [7] [%] | viability at 10 µM [8] [%] | viability at 10 µM [9] [%] | viability at 10 µM [10] [%] | viability at 10 µM [11] [%] | viability at 10 µM [12] [%] | viability at 10 µM [13] [%] | viability at 10 µM [14] [%] | viability at 10 µM [15] [%] | viability at 10 µM [16] [%] | viability at 10 µM [17] [%] | viability at 10 µM [18] [%] | viability at 10 µM [19] [%] | viability at 10 µM [20] [%] | also measured
COc1ccc(C2CC(c3ccco3)=NN2c2ccc(S(=O)(=O)NC(=O)NCc3ccccc3)cc2)cc1 (stereo not given) | 126 | 98 | 110 | 102 | 107 | 92.8 | 97.1 | 108 | 97.5 | 106 | 109 | 93.9 | 101 | 104 | 103 | 95.9 | 108 | 99.3 | 102 | 107 | viability at 10 µM [21]: 102%; viability at 10 µM [22]: 103%; viability at 10 µM [23]: 101%; viability at 10 µM [24]: 102%; viability at 10 µM [25]: 97.9%; viability at 10 µM [26]: 113%; viability at 10 µM [27]: 102%; viability at 10 µM [28]: 113%; viability at 10 µM [29]: 106%; viability at 10 µM [30]: 99.4%; viability at 10 µM [31]: 92.4%; viability at 10 µM [32]: 108%; viability at 10 µM [33]: 94.7%; viability at 10 µM [34]: 101%; viability at 10 µM [35]: 101%
COc1ccc(NC(=O)NS(=O)(=O)c2ccc(N3N=C(c4cc5ccccc5oc4=O)CC3c3ccc(N(C)C)cc3)cc2)cc1 (stereo not given) | 130 | 114 | 107 | 98 | 74.3 | 95 | 89.7 | 85.1 | 99.9 | 105 | 104 | 82.6 | 93.1 | 103 | 98.8 | 83.8 | 103 | 91.8 | 95.6 | 81 | viability at 10 µM [21]: 95.6%; viability at 10 µM [22]: 102%; viability at 10 µM [23]: 101%; viability at 10 µM [24]: 98.4%; viability at 10 µM [25]: 96.3%; viability at 10 µM [26]: 102%; viability at 10 µM [27]: 102%; viability at 10 µM [28]: 105%; viability at 10 µM [29]: 97.1%; viability at 10 µM [30]: 86%; viability at 10 µM [31]: 97.6%; viability at 10 µM [32]: 111%; viability at 10 µM [33]: 83.1%; viability at 10 µM [34]: 104%; viability at 10 µM [35]: 95.5%
CN(C)c1ccc(C2CC(c3cc4ccccc4oc3=O)=NN2c2ccc(S(=O)(=O)NC(=O)NCc3ccccc3)cc2)cc1 (stereo not given) | 66.4 | 59.5 | 66.6 | 66.1 | 19.7 | 61 | 74 | 67.3 | 79.6 | 65.3 | 90 | 48.5 | 32.8 | 73.1 | 87.9 | 61.7 | 82 | 67.8 | 79.8 | 89.9 | viability at 10 µM [21]: 55%; viability at 10 µM [22]: 65.5%; viability at 10 µM [23]: 57.4%; viability at 10 µM [24]: 62.7%; viability at 10 µM [25]: 64.9%; viability at 10 µM [26]: 82.2%; viability at 10 µM [27]: 74.6%; viability at 10 µM [28]: 85.4%; viability at 10 µM [29]: 77.8%; viability at 10 µM [30]: 44.9%; viability at 10 µM [31]: 67.1%; viability at 10 µM [32]: 84.9%; viability at 10 µM [33]: 47.6%; viability at 10 µM [34]: 68.2%; viability at 10 µM [35]: 65.8%
O=C(NCc1ccccc1)NS(=O)(=O)c1ccc(N2N=C(c3cc4ccccc4oc3=O)CC2c2cccs2)cc1 (stereo not given) | 119 | 111 | 106 | 105 | 98.8 | 99.3 | 98.4 | 101 | 106 | 107 | 106 | 106 | 106 | 108 | 103 | 93.8 | 108 | 102 | 97.7 | 90.7 | viability at 10 µM [21]: 98.8%; viability at 10 µM [22]: 103%; viability at 10 µM [23]: 97.4%; viability at 10 µM [24]: 101%; viability at 10 µM [25]: 104%; viability at 10 µM [26]: 106%; viability at 10 µM [27]: 111%; viability at 10 µM [28]: 123%; viability at 10 µM [29]: 98.4%; viability at 10 µM [30]: 95.7%; viability at 10 µM [31]: 108%; viability at 10 µM [32]: 110%; viability at 10 µM [33]: 94.4%; viability at 10 µM [34]: 110%; viability at 10 µM [35]: 103%
COc1ccc(C2CC(c3cc4ccccc4oc3=O)=NN2c2ccc(S(=O)(=O)NC(=O)Nc3ccccc3C)cc2)cc1 (stereo not given) | 108 | 76.8 | 84.6 | 85.8 | 80.4 | 96.6 | 85.4 | 87.7 | 87.1 | 99.8 | 107 | 82.6 | 95.8 | 97.1 | 101 | 93.8 | 102 | 99.4 | 92.6 | 104 | viability at 10 µM [21]: 91.8%; viability at 10 µM [22]: 102%; viability at 10 µM [23]: 102%; viability at 10 µM [24]: 97.2%; viability at 10 µM [25]: 113%; viability at 10 µM [26]: 107%; viability at 10 µM [27]: 83.1%; viability at 10 µM [28]: 116%; viability at 10 µM [29]: 99.2%; viability at 10 µM [30]: 68.9%; viability at 10 µM [31]: 81%; viability at 10 µM [32]: 111%; viability at 10 µM [33]: 91.1%; viability at 10 µM [34]: 100%; viability at 10 µM [35]: 93.4%
